Experimental data from ChEMBL document CHEMBL5352497, “Aromatic hydrazides: A potential solution for Acinetobacter baumannii infections” (Eur J Med Chem, 2023).
Converted amounts (≈) assume the structure as drawn.

Key:
Erythrocyte = experiment: Hemolytic activity in mouse RBC at 32 ug/ml incubated for 1 hr; format: toxicity, cell-based; conditions: erythrocyte, 1 h, dose 32 µg/ml
HEK293 = experiment: Cytotoxicity against HEK293 cells at 8 ug/ml; format: toxicity, cell-based; conditions: human, dose 8 µg/ml
[1] = Hemolytic activity in mouse RBC at 8 ug/ml incubated for 1 hr; format: toxicity, cell-based, Erythrocyte; conditions: red blood cells (erythrocytes), at 8 µg/mL, read-out: Activity
Acinetobacter baumannii [2] = experiment: Antibacterial activity against Acinetobacter baumannii ATCC 19606; format: functional
Klebsiella pneumoniae = experiment: Antibacterial activity against Klebsiella pneumoniae ATCC 27736; format: functional
Salmonella enterica = experiment: Antibacterial activity against Salmonella enterica ATCC 14028; format: functional
Staphylococcus aureus = experiment: Antibacterial activity against Staphylococcus aureus ATCC 25923; format: functional
Acinetobacter baumannii [3] = experiment: Antibacterial activity against Acinetobacter baumannii BAA1605; format: functional
Enterobacter cloacae = experiment: Antibacterial activity against Enterobacter cloacae ATCC 13047; format: functional
Bacillus anthracis = experiment: Antibacterial activity against Bacillus anthracis Sterne F32; format: functional
Pseudomonas aeruginosa = experiment: Antibacterial activity against Pseudomonas aeruginosa ATCC 27853; format: functional
Escherichia coli = experiment: Antibacterial activity against Escherichia coli MC1061; format: functional
[4] = test system: Staphylococcus epidermidis; experiment: Antibacterial activity against Staphylococcus epidermidis ATCC 12228; format: functional

Compound | Activity (Erythrocyte) | Activity (HEK293) | hemolysis at 1 h, 8 ug/ml [1] [%] | MIC (Acinetobacter baumannii [2]) [µg/mL] | MIC (Klebsiella pneumoniae) [µg/mL] | MIC (Salmonella enterica) [µg/mL] | MIC (Staphylococcus aureus) [µg/mL] | MIC (Acinetobacter baumannii [3]) [µg/mL] | MIC (Enterobacter cloacae) [µg/mL] | MIC (Bacillus anthracis) [µg/mL] | MIC (Pseudomonas aeruginosa) [µg/mL] | MIC (Escherichia coli) [µg/mL] | MIC [4] [µg/mL]
CCC(=O)NNc1cccc(F)c1 | Non-Toxic | Non-Toxic | < 10 |  |  |  |  |  |  |  |  |  | 
O=C(NNc1cccc(F)c1)c1nc(F)ccc1F | Non-Toxic | Non-Toxic | < 10 |  |  |  |  |  |  |  |  |  | 
O=C(NNc1cccc(F)c1)c1cccc(F)n1 | Non-Toxic | Non-Toxic | < 10 |  |  |  |  |  |  |  |  |  | 
O=C(NNc1ccc(Cl)cc1)c1cnc2ccccc2n1 | Non-Toxic | Non-Toxic | < 10 |  |  |  |  |  |  |  |  |  | 
O=C(NNc1cccc(F)c1)c1ccc(F)cc1F | Non-Toxic | Non-Toxic | < 10 |  |  |  |  |  |  |  |  |  | 
CCOC(=O)CNNC(=O)c1ccc(F)cc1F | Non-Toxic | Non-Toxic | < 10 |  |  |  |  |  |  |  |  |  | 
O=C(NNc1cccc(F)c1)c1ncc(F)cc1F | Non-Toxic | Non-Toxic | < 10 |  |  |  |  |  |  |  |  |  | 
CCOC(=O)CNNC(=O)c1cnccn1 | Non-Toxic | Non-Toxic | < 10 |  |  |  |  |  |  |  |  |  | 
CCOC(=O)CNNC(=O)c1ccc2ccccc2n1 | Non-Toxic | Non-Toxic | < 10 | > 64 | > 64 | > 64 | > 64 | > 64 | > 64 | > 64 | > 64 | > 64 | > 64
O=C(NNc1cccc(F)c1)c1ccc(F)cn1 | Non-Toxic | Non-Toxic | < 10 | 0.5 (≈ 2.01 µM) | > 64 | > 64 | > 64 | 0.5 (≈ 2.01 µM) | > 64 | > 64 | > 64 | 64 (≈ 257 µM) | > 64
O=C(NNc1cccc(F)c1)c1cccc(Br)n1 | Non-Toxic | Non-Toxic | < 10 |  |  |  |  |  |  |  |  |  | 
O=C(NNc1cccc(Cl)c1)c1ccccn1 | Non-Toxic | Non-Toxic | < 10 | 2 (≈ 8.07 µM) | 16 (≈ 64.6 µM) | 16 (≈ 64.6 µM) | > 64 | 1 (≈ 4.04 µM) | 4 (≈ 16.1 µM) | > 64 | > 64 | 4 (≈ 16.1 µM) | > 64
O=C(NNC1CCCCC1)c1cnccn1 | Non-Toxic | Non-Toxic | < 10 |  |  |  |  |  |  |  |  |  | 
CCC(=O)NNc1ccc(Cl)cc1 | Non-Toxic | Non-Toxic | < 10 | ≤ 0.125 | 16 (≈ 80.5 µM) | 64 (≈ 322 µM) | > 64 | ≤ 0.125 | 16 (≈ 80.5 µM) | > 64 | > 64 | 16 (≈ 80.5 µM) | > 64
O=C(NNc1cccc(F)c1)c1cccnc1 | Non-Toxic | Non-Toxic | < 10 |  |  |  |  |  |  |  |  |  | 
O=C(NNC1CCCCC1)c1ccc(F)cc1F | Non-Toxic | Non-Toxic | < 10 |  |  |  |  |  |  |  |  |  | 
O=C(NNc1cccc(F)c1)c1ccc(Br)cn1 | Non-Toxic | Non-Toxic | < 10 |  |  |  |  |  |  |  |  |  | 
O=C(NNc1cccc(F)c1)c1ccccc1 | Non-Toxic | Non-Toxic | < 10 |  |  |  |  |  |  |  |  |  | 

Compound | Activity (Erythrocyte) | Activity (HEK293) | hemolysis at 1 h, 8 ug/ml [1] [%] | MIC (Acinetobacter baumannii [2]) [µg/mL] | MIC (Klebsiella pneumoniae) [µg/mL] | MIC (Salmonella enterica) [µg/mL] | MIC (Staphylococcus aureus) [µg/mL] | MIC (Acinetobacter baumannii [3]) [µg/mL] | MIC (Enterobacter cloacae) [µg/mL] | MIC (Bacillus anthracis) [µg/mL] | MIC (Pseudomonas aeruginosa) [µg/mL] | MIC (Escherichia coli) [µg/mL] | MIC [4] [µg/mL]
O=C(NNc1ccc(Cl)cc1)c1ncc(F)cc1F | Non-Toxic | Non-Toxic | < 10 |  |  |  |  |  |  |  |  |  | 
O=C(NNc1ccc(Cl)cc1)c1ccc2ccccc2n1 | Non-Toxic | Non-Toxic | < 10 | 0.5 (≈ 1.68 µM) | > 64 | > 64 | > 64 | 0.5 (≈ 1.68 µM) | > 64 | > 64 | > 64 | 16 (≈ 53.7 µM) | > 64
CCOC(=O)CNNC(=O)c1cccc(F)n1 | Non-Toxic | Non-Toxic | < 10 |  |  |  |  |  |  |  |  |  | 
O=C(NNc1ccc(Cl)cc1)c1cnccn1 | Non-Toxic | Non-Toxic | < 10 |  |  |  |  |  |  |  |  |  | 
CCOC(=O)CNNC(=O)c1ccccn1 | Non-Toxic | Non-Toxic | < 10 |  |  |  |  |  |  |  |  |  | 
O=C(NNc1ccc(Cl)cc1)c1ccco1 | Non-Toxic | Non-Toxic | < 10 | 0.5 (≈ 2.11 µM) | 16 (≈ 67.6 µM) | 16 (≈ 67.6 µM) | 64 (≈ 270 µM) | ≤ 0.125 | 4 (≈ 16.9 µM) | > 64 | > 64 | 16 (≈ 67.6 µM) | 64 (≈ 270 µM)
O=C(NNc1ccc(Cl)cc1)c1nc(F)ccc1F | Non-Toxic | Non-Toxic | < 10 |  |  |  |  |  |  |  |  |  | 
O=C(NNc1ccc(Cl)cc1)c1ccc(F)cc1F | Non-Toxic | Non-Toxic | < 10 | 0.25 (≈ 0.884 µM) | > 64 | > 64 | > 64 | 0.25 (≈ 0.884 µM) | 16 (≈ 56.6 µM) | > 64 | > 64 | 16 (≈ 56.6 µM) | > 64
O=C(NNc1cccc(F)c1)c1cnccn1 | Non-Toxic | Non-Toxic | < 10 |  |  |  |  |  |  |  |  |  | 
O=C(NNc1cccc(F)c1)c1ccco1 | Non-Toxic | Non-Toxic | < 10 |  |  |  |  |  |  |  |  |  | 
O=C(NNc1ccc(Cl)cc1)c1ccccn1 | Non-Toxic | Non-Toxic | < 10 | 0.25 (≈ 1.01 µM) | 64 (≈ 258 µM) | 64 (≈ 258 µM) | > 64 | 0.25 (≈ 1.01 µM) | 64 (≈ 258 µM) | > 64 | > 64 | 16 (≈ 64.6 µM) | > 64
O=C(NNc1cccc(F)c1)c1cnc2ccccc2n1 | Non-Toxic | Non-Toxic | < 10 |  |  |  |  |  |  |  |  |  | 
O=C(NNc1cccc(F)c1)c1ccccn1 | Non-Toxic | Non-Toxic | < 10 |  |  |  |  |  |  |  |  |  | 
CCOC(=O)CNNC(=O)c1ccc(F)cn1 | Non-Toxic | Non-Toxic | < 10 |  |  |  |  |  |  |  |  |  | 
O=C(NNc1ccc(Cl)cc1)c1cccnc1 | Non-Toxic | Non-Toxic | < 10 |  |  |  |  |  |  |  |  |  | 
O=C(NNC1CCCCC1)c1cccnc1 | Non-Toxic | Non-Toxic | < 10 |  |  |  |  |  |  |  |  |  | 
O=C(NNc1cccc(F)c1)c1cc2ccccc2[nH]1 | Non-Toxic | Non-Toxic | < 10 |  |  |  |  |  |  |  |  |  | 
COc1cccc(NNC(=O)c2ccccn2)c1 | Non-Toxic | Non-Toxic | < 10 |  |  |  |  |  |  |  |  |  | 
